Laboratory results published in patent US20250009779A1 (priority 2021, published 2025).
Entries after “also recorded” stand apart in the source; their conditions may differ.

Legend:
pDCs [1] = test system: pDCs
pDCs [2] = type: cell-based, human
pDCs [3] = type: cell-based, human; remark: listed apart in the source
pDCs [4] = type: cell-based, human; remark: listed apart in the source
pDCs [5] = type: cell-based, human; remark: listed apart in the source
macrophages [6] = experiment: FAIRE assay on promoter regions of IL6, TNF and IL12p40 in macrophages; type: cell-based, human; settings: cells primed with IFN-α 24 hours, then LPS 3 hours, FIG. 4G
macrophages [7] = experiment: Immunoblot of NF-κB and MAPKs signaling in macrophages; type: cell-based, human; settings: whole cell lysates, FIG. 20B
macrophages [8] = type: cell-based, human

Molecule: O=C(O)CCCCC(CCSCc1ccccc1)SCc1ccccc1 (centres unmarked) [CPI-613, 6,8-bis-benzylthio-octanoic acid]
- cell viability (pDCs [1]): no effect
- intracellular ATP levels in TLR9-activated pDCs (pDCs [2]): reduced
- secretion of IFN-α (pDCs [3]): inhibited
- XBP1 splicing (pDCs [4]): no effect
- expression of ISGs such as GBP1, IRF7, ISG54, MxB, CXCL10 (pDCs [4]): inhibited
- expression of PHGDH (pDCs [4]): no effect
- expression of IFN-α (IFNA) (pDCs [4]; 5 h): inhibited

Molecule: Cc1ccc(OCCN(C)C(=O)Cn2cc(NC(=O)CCOc3ccccc3)cn2)cc1 [IXA4]
- PHGDH gene expression (pDCs [4]): induced

Molecule: N[C@@H](CO)C(=O)O [L-serine]
- IFN-α secretion by TLR9-activated pDCs (pDCs [3]): unaltered

Molecule: Cc1cc(C)nc(NC(=S)N2CCN(Cc3ccc(C(F)(F)F)cc3)CC2)c1 [NCT-503]
- intracellular ATP levels under ER stress (pDCs [2]): restored
- intracellular pyruvate levels in ER stressed-pDCs (pDCs [5]): restored
- IFNA expression by TLR9-activated pDCs facing ER stress (pDCs [4]): restored

Molecule: CC(=O)C(=O)[O-].[Na+] [pyruvate, sodium pyruvate]
- intracellular ATP levels under ER stress (pDCs [2]): restored
- IFNA expression by pDCs under ER stress condition (pDCs [4]): restore

Molecule: C/C=C(/C)C(=O)O[C@H]1C(C)=C2[C@H]([C@@H]1OC(=O)CCCCCCC)[C@@](C)(OC(C)=O)C[C@H](OC(=O)CCC)[C@@]1(O)[C@H]2OC(=O)[C@@]1(C)O [thapsigargin]
- gene encoding phosphoglycerate dehydrogenase (PHGDH) expression (pDCs [4]): markedly induced
- induction of serine amino acid biosynthesis genes (pDCs [4]): induction

Molecule: O.O=C([O-])CCC(=O)C(=O)[O-].[Na+].[Na+] [α-KG, α-ketoglutaric acid disodium salt hydrate]
- intracellular ATP levels under ER stress (pDCs [2]): restored

Molecule: IFN-α
- chromatin accessibility of IL6 and TNF promoters (macrophages [6]): significantly increased; also recorded: increase
- TLR4-induced IKBα degradation or activation of MAPKs ERK and p38 (macrophages [7]): minimal effects; also recorded: does not increase
- LPS-induced response in macrophages: TNF, IL6, IL1B, IL12B and IFNB (macrophages [8]): superinduction; also recorded: increases
- TLR4 expression or of the 2 subunits of the IFNAR in the macrophages (macrophages [8]): little change
- chemokine receptors expression on macrophages (macrophages [8]): significant impact
- inflammatory genes (IL-1β, IL-12p40, IFN-β and CXCL10) expression (macrophages [8]): dose-dependent manner
